Source: patent publication US20250026716A1, “SYNTHESIS PROCESS OF FATTY ACYL TAURINE SALT” (ZHANGJIAGANG GREAT CHEMICAL CO., LTD., priority 2021, published 2025)

Columns and labels:
[1] = Foaming performance test (foam volume, mixing method); assay type: physicochemical; conditions: 2 g of sample, 150 mg/kg hard water to 500 mL, stirring 30 s at 1000 rpm
Protocol: For further comparison, foaming performance tests are conducted on products of Examples 12-13 and Comparative Examples 16-17, and the test results are shown in Table 12.

[2] = tested on: chicken embryo chorioallantoic membrane; assay: Irritancy (stimulus) test, chicken embryo chorioallantoic membrane method

Foam volume [1] [mL] | SMILES | Bleeding time [2] | IS value [2]
860 | CCCCCCCCCCCC(=O)NCCS(=O)(=O)O.[Na] [Comparative Example 16, sodium lauroyl taurine, reference compound] | – | –
– | CCCCCCCCCCCC(=O)NCCS(=O)(=O)O.[Na] [Example 2, sodium lauroyl taurine] | 41.5 | 4.33
1240 | CCCCCCCCCCCC(=O)NCCS(=O)(=O)O.[Na] [Example 12, sodium lauroyl taurine] | – | –
